Measured values taken from PMC9515143, “Phosphorylation of Jhd2 by the Ras-cAMP-PKA(Tpk2) pathway regulates histone modifications and autophagy” (Nature Communications, 2022).

Columns and labels:
PKA subunits = test: Expression of PKA subunits (Tpk1, Tpk2, Tpk3, Bcy1) after glucose, Western blot; type: cell-based, budding yeast (Saccharomyces cerevisiae); details: for Tpk2/GAPDH / Tpk3/GAPDH: normalized to Tpk1/GAPDH at same glucose; for Bcy1/GAPDH: normalized to Bcy1/GAPDH at 0.05% glucose
Procedure: Cells were grown in 5 ml YPD or selective medium until OD600 of 0.7–1.0. Cells were harvested and lysed in alkaline lysis buffer (2 M NaOH, 8% 2-mercaptoethanol). After centrifugation, the protein pellet was resuspended in 150 μl 2×SDS-sample buffer. Protein samples were separated by 8–15% SDS-PAGE and transferred to PVDF membrane. The blots were probed with primary antibodies followed by incubation with horseradish peroxidase-labelled IgG secondary antibodies. The protein bands were visualized using the ECL Chemiluminescence Detection Kit (Bio-Rad, 170–5061) and quantified with Image J software (v.1.8.0).
Supplementary Fi g . 11 Analysis of PKA subunits subcellular localization, expression and Bcy1 dissociation kinetics. […]
For Supplem ent ar y Fi g. 11 b, dat a r ep res ent m ean s ± SEM; n=3 independent ex perim ents. Tw o -sid ed t-t ests were us ed for statistical

Bcy1 = test: Dissociation of Tpk1, Tpk2, Tpk3 from Bcy1 after glucose, Co-IP; type: cell-based, budding yeast (Saccharomyces cerevisiae); details: 2% glucose, 0-30 min
Procedure: Yeast whole cell extract was prepared by vortexing with glass beads and then digested with Micrococcal Nuclease (MNase). Pre-cleared cell lysate was incubated with anti-FLAG M2 agarose for 1 hr at 4 °C. The beads were washed three times with IP washing buffer (40 mM HEPES-KOH, pH7.5, 0.1% NP-40, 10% glycerol, 1 mM PMSF, 350 mM NaCl, 2 μg/ml leupeptin, 1 μg/ml pepstatin A) and boiled in SDS-sample buffer for 5 min. Supernatants from the boiled beads were subjected to SDS-PAGE and Western blots.
Supplementary Fi g . 11 Analysis of PKA subunits subcellular localization, expression and Bcy1 dissociation kinetics. a Subcellul ar localiz ation of Tpk1, Tpk2 and Tp k3. Cells (Tpk1-FLAG, Tpk2- FLAG, Tpk3- F LA G) wer e grown in YP+2% glucos e medium. Th e localization of Tpk1, Tpk2 and Tp k3 was detect ed with ant i-F LAG antibod y. […] Bc y1 was immunoprecipitated from cells (Tpk1- FLAG/Bcy1- M yc, Tpk2- FLAG/Bcy1-M yc, Tpk3- FLAG/Bcy1- M yc) with anti-M yc antibody.
For Supplem ent ar y Fi g. 11 b, dat a r ep res ent m ean s ± SEM; n=3 independent ex perim ents. Tw o -sid ed t-t ests were us ed for statistical […]
(1 picture or pasted object on this page, not shown here)

COMPASS (Spp1-CBP) = test: In vitro histone methyltransferase (HMT) assay with purified COMPASS; type: biochemical, budding yeast (Saccharomyces cerevisiae); details: COMPASS (Spp1-CBP) purified from cells grown in 0.05% glucose
Procedure: The HMT reactions were carried out using purified COMPASS (Spp1-CBP) and 15 μg recombinant H3 in 50 μl reaction buffer (50 mM Tris pH 8.5, 20 mM KCl, 10 mM MgCl2, 10 mM 2-mercaptoethanol, 100 μM SAM, 250 mM sucrose, protease inhibitor cocktail) at 30 °C for 0–2 hr. Reactions were quenched by adding 5 × SDS loading buffer and boiled at 95°C for 5 min. Protein was separated on a 10–20% SDS-PAGE gel followed by Western blots with the antibodies indicated.
Supplementary Fi g . […] WT (a) and H2B-F LA G cel ls (b) wer e grown in YPD medium until OD600 of 0.7.
Cells were th en tr eat ed with YP medium supplement ed with differen t concentrations of glucos e for 0.5 hr. C ells were h ar vested an d the ex tract ed histones w er e anal yz ed by Western blots with indicat ed ant ibodies. To d et ect H2B monoubiquitination, H2B-F LAG strain w as used and d et ect ed with anti -F LAG ant ibody. Th e upper bands ar e monoubiquitinat ed H2B-F LAG. c E ff e c t of gl ucose on histone modifications in WT and ubp8∆ ubp10∆ mutant. WT and ubp8∆ ubp10∆ mut ant w er e gro wn in YPD medium unti l OD600 of 0.7. Cells wer e th en treated with YP medium supplem ent ed with di fferent con cen tr ations of gl u cos e fo r 0.5 hr. d Gluco se has no effect on the activit y of C O M PA S S . Spp1-TA P cells wer e grown in YPD medium until OD600 of 1.5. Cells were h arv est ed and then […]

SMILES: OC[C@H]1OC(O)[C@H](O)[C@@H](O)[C@@H]1O (stereo partly drawn) [glucose]
- Tpk2/GAPDH (PKA subunits; 0.05% glucose, replicate 1): 1.627
- Tpk3/GAPDH (PKA subunits; 0.05% glucose, replicate 1): 0.4263
- Tpk2/GAPDH (PKA subunits; 0.05% glucose, replicate 2): 1.616
- Tpk3/GAPDH (PKA subunits; 0.05% glucose, replicate 2): 0.1439
- Tpk2/GAPDH (PKA subunits; 0.05% glucose, replicate 3): 1.728
- Tpk3/GAPDH (PKA subunits; 0.05% glucose, replicate 3): 0.2447
- expression of PKA subunits (PKA subunits; 0.05%, 0.5%, 2% glucose, Western blot): not significantly altered by glucose
- Bcy1/GAPDH (PKA subunits; 0.5% glucose, replicate 1): 0.8311
- Bcy1/GAPDH (PKA subunits; 0.5% glucose, replicate 2): 0.7213
- Bcy1/GAPDH (PKA subunits; 0.5% glucose, replicate 3): 1.191
- Tpk2/GAPDH (PKA subunits; 0.5% glucose, replicate 1): 1.363
- Tpk3/GAPDH (PKA subunits; 0.5% glucose, replicate 1): 0.4332
- Tpk2/GAPDH (PKA subunits; 0.5% glucose, replicate 2): 1.712
- Tpk3/GAPDH (PKA subunits; 0.5% glucose, replicate 2): 0.3492
- Tpk2/GAPDH (PKA subunits; 0.5% glucose, replicate 3): 1.416
- Tpk3/GAPDH (PKA subunits; 0.5% glucose, replicate 3): 0.1641
- Bcy1/GAPDH (PKA subunits; 2% glucose, replicate 1): 1.059
- Bcy1/GAPDH (PKA subunits; 2% glucose, replicate 2): 0.8633
- Bcy1/GAPDH (PKA subunits; 2% glucose, replicate 3): 0.977
- Tpk2/GAPDH (PKA subunits; 2% glucose, replicate 1): 1.492
- Tpk3/GAPDH (PKA subunits; 2% glucose, replicate 1): 0.565
- Tpk2/GAPDH (PKA subunits; 2% glucose, replicate 2): 1.634
- Tpk3/GAPDH (PKA subunits; 2% glucose, replicate 2): 0.1809
- Tpk2/GAPDH (PKA subunits; 2% glucose, replicate 3): 1.419
- Tpk3/GAPDH (PKA subunits; 2% glucose, replicate 3): 0.2075
- dissociation of Tpk2 from Bcy1 compared with Tpk1 and Tpk3 (Bcy1): Tpk2 dissociated with Bcy1 with a faster kinetics than Tpk1 and Tpk3
- HMT activity of COMPASS (COMPASS (Spp1-CBP)): did not affect the HMT activity of COMPASS
